This note sets out measurements from patent publication US6462064B1, “Apoptosis inducing adamantyl derivatives and their usage as anti-cancer agents, especially for cervical cancers and dysplasias” (Galderma Research & Development S.N.C., priority 1996, dated 2002).

The test system of assay [1] is human cervical cancer cell lines (C33A cells and Caski cells). As to the kind of experiment: Proliferation of human cervical cancer cell lines (Example 33, FIG. 7). The format is cell-based. On the procedure:
Another experiment was also conducted to compare the effect of three different retinoid compounds according to the invention, i.e., 6-[3-(1-adamantyl)-4-methoxyphenyl]-2-naphthoic acid, 2-[3-(1-adamantyl)-4-methoxyphenyl]-5-benzimidazole carboxylic acid, and 6-[3-(1-adamantyl)-4,5-methylenedioxyphenyl]-2-naphthoic acid, a control (DMSO), and a control retinoid (all-trans retinoic acid) on the proliferation of several human cervical cancer cell lines (C33A cells and Caski cells).

The test system of a further assay is cancer cells. As to the kind of experiment: List of active compounds: types of cancers and precancers active against. The format is cell-based. An excerpt:
As discussed, the adamantyl retinoid derivatives according to the invention which induce apoptosis are useful for treating many different types of cancers.

The test system of assay [2] is various human cancer cell lines. As to the kind of experiment: Anti-cancer activity against human cancer cell lines over a concentration range (FIGS. 2-4). The conditions noted are these: retinoid concentrations 10^−9 M to 10^−5 M. The assay is classed as cell-based. An excerpt:
FIG. 2 compares the activity of selected adamantyl retinoids according to the invention and all-trans-retinoic acid against a human non-small lung carcinoma cell line.
FIG. 3 compares the activity of selected adamantyl retinoids according to the invention and all-trans-retinoic acid against human prostate adenocarcinoma, human metastatic prostate adenocarcinoma, and human prostate carcinoma cell lines.
FIG. 4 compares the activity of selected adamantyl retinoids according to the invention and all-trans-retinoic acid against a human liver cancer cell line.

For assay [3], the system named is cervical cancer cell lines. As to the kind of experiment: Apoptosis, cellular DNA fragmentation ELISA (FIG. 8). Conditions: eighteen hours; adapalene 1, 5 and 10 μM, tRA 10 μM, ceramide 0.5 mM. The format is cell-based, human. On the procedure:
In this experiment cells were labeled with BrdU for six hours. After labeling, cells were treated with vehicle (DM50), or with 10 μM tRA, 0.5 mM ceramide or doses of adapalene of 1, 5 and 10 μM for eighteen hours. Apoptosis was measured using a cellular DNA fragmentation ELISA kit (available from Boehringer). […] Therein, one unit represents the value obtained from cells grown in the presence of vehicle alone.
For orientation: ELISA stands for enzyme-linked immunosorbent assay.

“Also recorded” adds a separate entry of the source.

`COc1ccc(-c2nc3ccc(C(=O)O)cc3[nH]2)cc1C12CC3CC(CC(C3)C1)C2` [Compound 2, 2-[3-(1-adamantyl)-4-methoxyphenyl]-5-benzimidazole carboxylic acid]: the “effect on proliferation of human cervical cell lines” value in assay [1] is given as “strong inhibitory effect”. The “Types of Cancers and Precancers Active Against” value (from here on “Types”) with cancer cells is “brain, colon, leukemia, lung,; also recorded: cervical (including, e.g.,; also recorded: cervical intraepithelial neoplasia; also recorded: I, II, III), lymphoma, myeloma,; also recorded: ovarian, pancreatic, prostate,; also recorded: skin, liver”. Moreover, the anti-cancer activity entry in assay [2] was “significant anti-cancer activity”. Regarding `O=C(O)c1ccc2cc(-c3ccc(CO)c(C45CC6CC(CC(C6)C4)C5)c3)ccc2c1` [Compound 3, 6-[3-(1-adamantyl)-4-hydroxymethylphenyl]-2-naphthoic acid], the “Types” value in the assay with cancer cells is “bladder, brain, breast, cervical,; also recorded: colon, head and neck, leukemia,; also recorded: kidney, lung, myeloma, ovarian,; also recorded: pancreatic, prostate, skin, liver”. For the same compound, the anti-cancer activity result in assay [2] is listed as “significant anti-cancer activity”.

For `COc1cc(-c2ccc3cc(C(=O)O)ccc3c2)cc(C23CC4CC(CC(C4)C2)C3)c1O` [Compound 4, 6-[3-(1-adamantyl)-4-hydroxy-5-methoxyphenyl]-2-naphthoic acid], in the assay with cancer cells, the “Types” value is reported as “brain, breast, kidney, lung,; also recorded: leukemia, lymphoma, myeloma,; also recorded: ovarian, pancreatic, prostate,; also recorded: skin, liver”. For the same compound, the anti-cancer activity result in assay [2] is “significant anti-cancer activity”. In the case of `COc1ccc(-c2ccc3cc(C(=O)O)ccc3c2)cc1C12CC3CC(CC(C)(C3)O1)C2` [Compound 40, 6-[3-(2-oxa-3-methyl-1-adamantyl)-4-methoxyphenyl]-2-naphthoic acid], the “Types” value in the assay with cancer cells is recorded as “bladder, breast, kidney,; also recorded: leukemia, lung, lymphoma,; also recorded: ovarian, prostate, skin”. Same read-out and setting: to `COc1ccc(-c2ccc3cc(C(=O)O)ccc3c2)cc1C12CC3CC(CC(C)(C3)C1)C2` [Compound 41, 6-[3-(3-methyl-1-adamantyl)-4-methoxyphenyl]-2-naphthoic acid] belongs “skin”; to `COc1ccc(-c2ccc3cc(C(=O)O)ccc3c2)cc1C12CC3CC(C)(CC(C)(C3)C1)C2` [Compound 42, 6-[3-(3,5-dimethyl-1-adamantyl)-4-methoxyphenyl]-2-naphthoic acid], “skin”; to `CC12CC3CC(C)(C1)CC(c1cc(-c4ccc5cc(C(=O)O)ccc5c4)cc4c1OCO4)(C3)C2` [Compound 43, 6-[3-(3,5-dimethyl-1-adamantyl)-4,5-methylenedioxyphenyl]-2-naphthoic acid], “prostate, breast, neuroblastoma”. Still for that read-out and setting: to `COc1ccc(-c2ccc3cc(C(=O)N4CCCNCC4)ccc3c2)cc1C12CC3CC(CC(C3)C1)C2` [Compound 44, N-{6-[3-(1-adamantyl)-4-methoxyphenyl]-2-naphthalenecarboxoyl}homopiperazide] belongs “bladder, kidney, epidermal,; also recorded: leukemia lung, neuroblastoma,; also recorded: hepatoma, cervix, skin”.

For the compound `COc1ccc(-c2ccc3cc(C(=O)NCCN)ccc3c2)cc1C12CC3CC(CC(C3)C1)C2` [Compound 45, N-(2-aminoethyl)-{6-[3-(1-adamantyl)-4-methoxyphenyl]-2-naphthalenecarboxamide]], the “Types” value in the assay with cancer cells is on record as “bladder, kidney, prostate,; also recorded: leukemia, breast, lung, neuro-; also recorded: blastoma, hepatoma, pancreas,; also recorded: cervix skin”. Regarding `O=C(c1ccc2cc(-c3cc4c(c(C56CC7CC(CC(C7)C5)C6)c3)OCO4)ccc2c1)N1CCNCC1` [Compound 46, N-{6-[3-(1-adamantyl)-4,5-methylenedioxy]-2-naphthalenecarboxoyl}piperazide], the “Types” value in the assay with cancer cells is reported as “prostate, neuroblastoma,; also recorded: hepatoma”.

`O=C(c1ccc2cc(-c3cc4c(c(C56CC7CC(CC(C7)C5)C6)c3)OCO4)ccc2c1)N1CCCNCC1` [Compound 47, N-{6-[3-(1-adamantyl)-4,5-methylenedioxy]-2-naphthalenecarboxoyl}homopiperazide]: in the assay on cancer cells, the “Types” value was “bladder, neuroblastoma, cervix, and skin”.

As for `NCCNC(=O)c1ccc2cc(-c3cc4c(c(C56CC7CC(CC(C7)C5)C6)c3)OCO4)ccc2c1` [Compound 48, N-(2-aminoethyl)-{6-[3-(1-adamantyl)-4,5-methylenedioxyphenyl]-2-naphthalenecarboxamide}], the “Types” value in the assay on cancer cells is “breast, hepatoma, skin”. On the same count and under the same terms, as for `CC12CC3CC(C1)CC(c1cc(-c4ccc5cc(C(=O)O)ccc5c4)ccc1O)(C3)C2` [Compound 49, 6-[3-(3-methyl-1-adamantyl)-4-hydroxyphenyl]-2-naphthalenecarboxylic acid], the entry is “breast, neuroblastoma, leukemia”. On to Ceramide, for which, in assay [3], the induction of apoptosis result is given as “effectively induced apoptosis”.
